Measured values: PMC3299084 (Journal of Medicinal Chemistry, 2012)
Peptide text beside a SMILES is read from it. * marks the point of attachment. X1 = CC(=O)O[C@H]1C(=O)[C@@]2(C)[C@H]([C@H](OC(=O)c3ccccc3)[C@]3(O)C[C@H](OC(=O)[C@H](OC(=O)COCC(=O)OCCCCCCn4cc(CCCC(=O)*)nn4)[C@@H](NC(=O)c4ccccc4)c4ccccc4)C(C)=C1C3(C)C)[C@]1(OC(C)=O)CO[C@@H]1C[C@@H]2O

What was measured:
[1] = Bio-distribution: PTX levels in tumor and plasma by LC-MS/MS; type: in vivo, mice
EphA2 Fc = EphA2 Fc (Homo sapiens, UniProt P29317); test: ELISA displacement of ephrin-A5 AP from immobilized EphA2 Fc; settings: ephrin-A5 AP binding to EphA2 Fc
PC3 cells [2] = test: ATP-Lite analysis of cell viability; type: cell-based, human; settings: 72 hours, 10 nM, EphA2 overexpressing PC3
EphA2 [3] = target: T1, EphA2 (Homo sapiens, UniProt P29317); test: EphA2 internalization into lysosomes, confocal imaging; type: cell-based; settings: PC3 cells, 2 h, 100 μM conjugate or 0.2 μg/mL ephrin-A1 Fc
EphA2 [4] = target: T1, EphA2; test: Quantum dot internalization into lysosomes; settings: PC3 prostate cancer cells (highly EphA2 expressing), 100 μM
Plasma stability = type: in vitro ADME; settings: rat, plasma (fresh)
Microsomal stability = type: in vitro ADME; settings: rat, liver microsomes, pH 7.2
PC3 cells [5] = test: Release of native paclitaxel in the presence of PC3 cells; type: cell-based, human; settings: in the presence of PC3 cells (data not shown)
PC3 tumor xenografts = settings: intravenous, twice weekly for 3 weeks

T1 sequence (P29317 24-976): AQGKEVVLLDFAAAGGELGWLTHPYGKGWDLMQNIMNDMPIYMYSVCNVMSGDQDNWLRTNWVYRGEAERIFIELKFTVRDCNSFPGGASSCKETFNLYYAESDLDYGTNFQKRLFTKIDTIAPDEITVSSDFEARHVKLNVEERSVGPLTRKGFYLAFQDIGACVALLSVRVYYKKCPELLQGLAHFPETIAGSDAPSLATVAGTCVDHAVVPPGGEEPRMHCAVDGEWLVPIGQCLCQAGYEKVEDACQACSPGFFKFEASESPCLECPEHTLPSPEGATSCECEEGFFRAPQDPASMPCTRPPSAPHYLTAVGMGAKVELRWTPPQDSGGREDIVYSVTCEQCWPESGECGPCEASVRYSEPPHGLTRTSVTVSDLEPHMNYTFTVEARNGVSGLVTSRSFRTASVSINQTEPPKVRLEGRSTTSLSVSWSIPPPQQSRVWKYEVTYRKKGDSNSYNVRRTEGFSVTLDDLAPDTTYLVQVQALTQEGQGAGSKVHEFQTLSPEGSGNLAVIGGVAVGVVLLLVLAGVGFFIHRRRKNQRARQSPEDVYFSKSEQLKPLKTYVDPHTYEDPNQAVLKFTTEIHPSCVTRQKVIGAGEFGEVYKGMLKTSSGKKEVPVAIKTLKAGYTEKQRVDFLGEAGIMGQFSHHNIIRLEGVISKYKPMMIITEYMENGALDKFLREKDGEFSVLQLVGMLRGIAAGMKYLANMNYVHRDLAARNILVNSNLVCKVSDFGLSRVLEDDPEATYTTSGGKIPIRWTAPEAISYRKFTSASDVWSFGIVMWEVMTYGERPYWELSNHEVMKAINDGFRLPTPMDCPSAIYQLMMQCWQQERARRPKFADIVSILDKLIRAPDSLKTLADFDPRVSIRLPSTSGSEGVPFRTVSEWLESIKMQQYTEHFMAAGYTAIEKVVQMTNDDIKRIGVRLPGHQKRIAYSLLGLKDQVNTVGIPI
EphA2 Fc, sequence (P29317 24-537 limits assumed): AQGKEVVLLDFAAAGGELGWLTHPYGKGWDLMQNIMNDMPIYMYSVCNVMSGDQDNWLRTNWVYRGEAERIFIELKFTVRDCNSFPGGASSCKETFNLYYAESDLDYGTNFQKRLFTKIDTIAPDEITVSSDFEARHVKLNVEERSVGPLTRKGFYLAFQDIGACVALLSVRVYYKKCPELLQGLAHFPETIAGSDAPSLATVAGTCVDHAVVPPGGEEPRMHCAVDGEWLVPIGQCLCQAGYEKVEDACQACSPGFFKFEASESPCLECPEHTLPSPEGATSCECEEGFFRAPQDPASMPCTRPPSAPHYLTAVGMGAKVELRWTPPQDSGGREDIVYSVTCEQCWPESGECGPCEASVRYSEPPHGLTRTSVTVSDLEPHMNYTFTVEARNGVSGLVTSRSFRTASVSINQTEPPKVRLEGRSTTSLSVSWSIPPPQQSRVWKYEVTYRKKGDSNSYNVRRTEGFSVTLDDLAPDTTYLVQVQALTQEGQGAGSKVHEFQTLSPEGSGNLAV

| concentration at 30 min ([1]; SCID-beige, mouse, plasma, intravenous, 25 mg/kg) [ng/mL] | Structure (SMILES) | displacement of ephrin-A5 (EphA2 Fc) | cell death / viability of PC3 cells (PC3 cells [2]) | EphA2 internalization into lysosomes (EphA2 [3]) | Qdot uptake / targeting of cells (EphA2 [4]) | half-life at 1 μM (Plasma stability) [min] | half-life at 4 μM (Microsomal stability) [min] | time to nearly complete release of native paclitaxel (PC3 cells [5]) | Plasma levels of PTX ([1]; 30 min after single equimolar intravenous dose (PTX 25 mg/kg)) [ng/mL] | signs of toxicity (PC3 tumor xenografts) | mouse body weights (PC3 tumor xenografts; versus vehicle control) |
| --- | --- | --- | --- | --- | --- | --- | --- | --- | --- | --- | --- |
| 771 ± 585 | CC(=O)O[C@H]1C(=O)[C@@]2(C)[C@H]([C@H](OC(=O)c3ccccc3)[C@]3(O)C[C@H](OC(=O)[C@H](O)[C@@H](NC(=O)c4ccccc4)c4ccccc4)C(C)=C1C3(C)C)[C@]1(OC(C)=O)CO[C@@H]1C[C@@H]2O [PTX, paclitaxel, reference compound] | – | – | – | – | – | – | – | – | – | – |
| – | CSCC[C@H](NC(=O)[C@H](C)NC(=O)[C@H](CCSC)NC(=O)[C@H](CO)NC(=O)[C@@H]1CCCN1C(=O)[C@H](Cc1ccc(O)cc1)NC(=O)[C@@H](N)CC(=O)O)C(=O)N[C@@H](Cc1ccc(O)cc1)C(=O)N[C@@H](CO)C(=O)N1CCC[C@H]1C(=O)N[C@@H](CO)C(=O)N[C@H](C(=O)N[C@@H](CCCCNC(=O)CCCc1cn(CCCCCCOC(=O)COCC(=O)O[C@@H](C(=O)O[C@H]2C[C@@]3(O)[C@@H](OC(=O)c4ccccc4)[C@@H]4[C@]5(OC(C)=O)CO[C@@H]5C[C@H](O)[C@@]4(C)C(=O)[C@H](OC(C)=O)C(=C2C)C3(C)C)[C@@H](NC(=O)c2ccccc2)c2ccccc2)nn1)C(=O)O)C(C)C [DYP-PTX, DYPSMAMYSPSV- K*-PTX] (H-DYPSMAMYSPSVK(X1)-OH; N-terminus and C-terminus assumed) | neither of the control compounds, DYP motif nor DYP-PTX conjugate, show any detectable displacement of ephrin-A5 | no significant cell killing | does not trigger EphA2 internalization | does not target PC3 cells | – | – | – | – | – | – |
| – | CSCC[C@H](NC(=O)[C@H](CCSC)NC(=O)[C@@H]1CCCN1C(=O)[C@@H](NC(=O)[C@H](CO)NC(=O)[C@H](CC(=O)O)NC(=O)[C@@H]1CCCN1C(=O)[C@H](Cc1ccc(O)cc1)NC(=O)[C@H](C)NC(=O)[C@H](CO)NC(=O)[C@@H](N)Cc1ccc(O)cc1)C(C)C)C(=O)N[C@@H](CO)C(=O)N[C@@H](CCCCNC(=O)CCCc1cn(CCCCCCOC(=O)COCC(=O)O[C@@H](C(=O)O[C@H]2C[C@@]3(O)[C@@H](OC(=O)c4ccccc4)[C@@H]4[C@]5(OC(C)=O)CO[C@@H]5C[C@H](O)[C@@]4(C)C(=O)[C@H](OC(C)=O)C(=C2C)C3(C)C)[C@@H](NC(=O)c2ccccc2)c2ccccc2)nn1)C(=O)O [YSA-PTX] | – | retained the ability of paclitaxel to induce cell death at low nanomolar concentrations | – | – | 43 | 23 | about 60 minutes | 998 ± 742 | no adverse signs of toxicity | not affected |
